Results on 57 compounds are retold here after patent publication US20150225369A1, “DDR2 INHIBITORS FOR THE TREATMENT OF OSTEOARTHRITIS” (Merck Patent GmbH, priority 2012, published 2015).

Bounds are passed on as bounds.

In the first assay the target is T1, His-tagged human recombinant DDR-2 kinase domain (His-TEV-DDR2 467-855 aa) (Homo sapiens, UniProt Q16832).
T1 construct: His-TEV-DDR2 467-855 aa
T1 sequence (Q16832 467-855): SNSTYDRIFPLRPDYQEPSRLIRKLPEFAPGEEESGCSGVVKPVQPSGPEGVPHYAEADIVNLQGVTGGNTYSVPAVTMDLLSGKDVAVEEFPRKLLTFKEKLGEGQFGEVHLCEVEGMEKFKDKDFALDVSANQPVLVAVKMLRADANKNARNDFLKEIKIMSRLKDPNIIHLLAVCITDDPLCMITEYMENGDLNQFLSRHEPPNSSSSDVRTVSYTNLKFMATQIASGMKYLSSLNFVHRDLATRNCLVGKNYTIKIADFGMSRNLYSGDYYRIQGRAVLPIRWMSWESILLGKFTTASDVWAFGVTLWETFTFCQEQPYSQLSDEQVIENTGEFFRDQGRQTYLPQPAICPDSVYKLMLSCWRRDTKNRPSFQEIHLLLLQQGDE
As to the kind of experiment: Autophosphorylation assay for biochemical activity testing of DDR2 (HTRF). Particulars: 4 nM DDR2 kinase domain, 150 μM ATP, 150 min at 22° C. As to the method: The autophosphorylation assay was run in two steps: the enzymatic reaction in which His-tagged DDR2 with ATP as co-substrate phosphorylates itself and the detection reaction where a time resolved FRET between XL665® labelled anti-6His antibody bound to the His-tag of the enzyme and cryptate labelled anti-phospho-Tyrosine-antibody (PT66) bound the phosphorylated Tyrosine residue of DDR2 was analysed. The autophosphorylation activity was detectable directly via the increase in HTRF signal.
The autophosphorylation assay was performed as 1536 well or 384 well HTRF® (Cisbio, Codolet, France) assay format in Greiner low volume medium binding 384-well microtiter plates and was used for high throughput screen. […] The ratio of the emission signals was determined. The full value used was the inhibitor-free reaction.
In general, IC50 refers to the point on the concentration scale where inhibition reaches its midpoint. Take `CNC(=O)c1cc(Oc2ccc(CNC(=O)Nc3cc(Cl)nc(Cl)c3)cc2)ccn1` [compound 2]: the IC50 is 1.5 µM.

For `CNC(=O)c1cc(Oc2ccc(CNC(=O)Nc3ccccn3)cc2)ccn1` [compound 3], the IC50 came out at 3.8 µM.

With `CNC(=O)c1cc(Oc2ccc(COC(=O)Nc3cc(C(F)(F)F)ccn3)cc2)ccn1` [compound 3], the IC50 came out at 0.033 µM.

`CNC(=O)c1cc(Oc2ccc(CNC(=O)Nc3cccnc3OC)cc2)ccn1` [compound 4]: the half-maximal inhibitory concentration (IC50) was determined as 1.6 µM.

`CNC(=O)c1cc(Oc2ccc(COC(=O)Nc3cc(C(F)(F)F)ccn3)cc2C)ccn1` [compound 4]: the concentration for half-maximal inhibition (IC50) worked out at 0.041 µM.

As to `CNC(=O)c1cc(Oc2ccc(CNC(=O)Nc3cccnc3)cc2)ccn1` [compound 5], the IC50 was 15 µM.

For `CNC(=O)c1cc(Oc2ccc(COC(=O)Nc3cc(C(F)(F)F)cnc3O)cc2)ccn1` [compound 5], the half-inhibitory concentration (IC50) is 0.61 µM.

Turning to `CNC(=O)c1cc(Oc2ccc(CNC(=O)Nc3ccnc(Cl)c3)cc2)ccn1` [compound 6], the IC50 stood at 1 µM.

For the compound `CNC(=O)c1cc(Oc2ccc(CNC(=O)Nc3ncc(C(F)(F)F)cc3Cl)cc2)ccn1` [compound 7], the IC50 was found to be 6.6 µM.

For the compound `Cn1cc(C(F)(F)F)cc(NC(=O)NCc2ccc(Oc3ccnc4ccccc34)cc2)c1=O` [compound 9], the half-maximal inhibitory concentration (IC50) was determined as 0.051 µM.

As to `CNC(=O)c1cc(Oc2ccc(CNC(=O)Nc3cnc4ccccc4c3)cc2)ccn1` [compound 10], the IC50 amounted to 0.29 µM.

On to `CCn1cc(C(F)(F)F)cc(NC(=O)NCc2ccc(Oc3ccnc(C(=O)NC)c3)cc2)c1=O` [compound 11], for which the IC50 amounted to 0.091 µM.

For `CNC(=O)c1cc(Oc2ccc(CNC(=O)Nc3cc4ccccc4nc3OC)cc2)ccn1` [compound 11], the IC50 came out at 0.19 µM.

Take `CNC(=O)c1cc(Oc2ccc(CNC(=O)Nc3cc(C(F)(F)F)cn(Cc4ccccc4)c3=O)cc2)ccn1` [compound 12]: the IC50 was determined as 0.26 µM.

Regarding `CNC(=O)c1cc(Oc2ccc(CNC(=O)Nc3ccc(C)cn3)cc2)ccn1` [compound 12], the concentration for half-maximal inhibition (IC50) was found to be 2 µM.

Take `CNC(=O)c1cc(Oc2ccc(CNC(=O)Nc3ccc(C)cn3)cc2C)ccn1` [compound 13]: the concentration for half-maximal inhibition (IC50) turned out to be 0.78 µM.

As for `Cn1cc(C(F)(F)F)cc(NC(=O)NCc2ccc(Oc3ccncc3C(F)(F)F)cc2)c1=O` [compound 13], the concentration for half-maximal inhibition (IC50) turned out to be 1.6 µM.

Take `CNC(=O)c1cc(Oc2ccc(CNC(=O)Nc3cc(C)ccn3)cc2)ccn1` [compound 14]: the half-inhibitory concentration (IC50) is 0.57 µM.

Turning to `CNC(=O)c1cc(Oc2ccc(CNC(=O)Nc3cc(C)ccn3)cc2C)ccn1` [compound 15], the concentration for half-maximal inhibition (IC50) came out at 0.4 µM.

`CNC(=O)c1cc(Oc2ccc(CNC(=O)Nc3cccnc3Cl)cc2)ccn1` [compound 16]: the IC50 is 11 µM.

In the case of `CNC(=O)c1cc(Oc2ccc(CNC(=O)Nc3ccc(OC)nc3)cc2)ccn1` [compound 17], the 50% inhibitory concentration (IC50) is 5.6 µM.

As for `CNC(=O)c1cc(Oc2ccc(CNC(=O)Nc3cc(C)cnc3Cl)cc2)ccn1` [compound 22], the IC50 was found to be 0.71 µM.

As to `COc1ncc(C)cc1NC(=O)NCc1ccc(Oc2ccnc(C)c2)c(C)c1` [compound 31], the IC50 was 0.23 µM.

Consider `Cc1cc(Oc2ccc(CNC(=O)Nc3cnc4ccccc4c3)cc2C)ccn1` [compound 32], for which the IC50 was determined as 7.1 µM.

Consider `COc1nc2ccccc2cc1NC(=O)NCc1ccc(Oc2ccnc(C)c2)c(C)c1` [compound 33], for which the IC50 was 1.7 µM.

As for `Cc1cc(Oc2ccc(CNC(=O)Nc3cc4ccccc4cn3)cc2C)ccn1` [compound 34], the half-maximal inhibitory concentration (IC50) was 11 µM.

Staying with this assay, now noted: Table 6; 4 nM DDR2 kinase domain, 150 μM ATP.
In the case of `CNC(=O)c1cc(Oc2ccc(C(O)CC(=O)Nc3ccc(Cl)c(C(F)(F)F)c3)cc2C)ccn1` (stereo not drawn) [compound 2], the half-maximal inhibitory concentration (IC50) worked out at 21 µM.

As to `CNC(=O)c1cc(Oc2ccc(CCC(=O)Nc3ccc(Cl)c(C(F)(F)F)c3)cc2C)ccn1` [compound 3], the IC50 came out at 1.6 µM.

Consider `CNC(=O)c1cc(Oc2ccc(OCC(=O)Nc3cc(C(F)(F)F)cn(C)c3=O)cc2)ccn1` [compound 4], for which the IC50 is 0.57 µM.

The same assay, now with this note: biochemical DDR2 autophosphorylation.
For the compound `O=C(NCc1ccc(Oc2ccncc2)cc1)Nc1cc(Cl)c(Cl)cc1Cl` [compound 2], the 50% inhibitory concentration (IC50) turned out to be 1.4 µM.

Consider `O=C(NCc1ccc(Oc2ccncc2)cc1)Nc1cccc(C(F)(F)F)c1` [compound 4], for which the IC50 is 0.036 µM.

Take `O=C(NCc1ccc(Oc2ccncc2)cc1)Nc1ccc(Cl)cc1Cl` [compound 5]: the IC50 came to 1.4 µM.

As for `Cc1cccc(NC(=O)NCc2ccc(Oc3ccncc3)cc2)c1` [compound 6], the 50% inhibitory concentration (IC50) came out at 1 µM.

Regarding `CC(=O)c1cccc(NC(=O)NCc2ccc(Oc3ccncc3)cc2)c1` [compound 7], the IC50 was 10 µM.

For `O=C(NCc1ccc(Oc2ccncc2)cc1)Nc1ccc(Br)cc1` [compound 9], the IC50 stood at 3.8 µM.

As to `O=C(NCc1ccc(Oc2ccncc2)cc1)Nc1cc(Cl)ccc1Cl` [compound 10], the IC50 was 0.27 µM.

Consider `O=C(NCc1ccc(Oc2ccncc2)cc1)Nc1ccc(F)cc1` [compound 11], for which the concentration for half-maximal inhibition (IC50) is 3.4 µM.

For `O=C(NCc1ccc(Oc2ccncc2)cc1)Nc1cccc(Cl)c1Cl` [compound 13], the half-maximal inhibitory concentration (IC50) is no less than 100 µM.

Consider `CNC(=O)c1cc(Oc2ccc(CNC(=O)Nc3ccccc3OC)cc2)ccn1` [compound 14], for which the IC50 came to 1.9 µM.

Consider `COc1ccc(OC)c(NC(=O)NCc2ccc(Oc3ccncc3)cc2)c1` [compound 15], for which the IC50 was determined as 0.44 µM.

Take `O=C(NCc1ccc(Oc2ccncc2)cc1)Nc1ccc(Cl)cc1` [compound 16]: the half-inhibitory concentration (IC50) is 5.9 µM.

On to `COc1ccc(NC(=O)NCc2ccc(Oc3ccncc3)cc2)cc1` [compound 17], for which the concentration for half-maximal inhibition (IC50) came to 13 µM.

Regarding `Cc1ccc(NC(=O)NCc2ccc(Oc3ccncc3)cc2)cc1` [compound 18], the IC50 was found to be 4.1 µM.

For `CNC(=O)c1cc(Oc2ccc(CNC(=O)Nc3cc(OC)ccc3OC)cc2)ccn1` [compound 20], the IC50 was found to be 0.098 µM.

Turning to `O=C(NCc1ccc(Oc2ccncc2)cc1)Nc1ccc(C(F)(F)F)cc1` [compound 21], the IC50 was 2 µM.

Regarding `O=C(NCc1ccc(Oc2ccncc2)cc1)Nc1cc(C(F)(F)F)cc(C(F)(F)F)c1` [compound 22], the half-inhibitory concentration (IC50) was 0.56 µM.

Turning to `Cc1cccc(NC(=O)NCc2ccc(Oc3ccncc3)cc2)c1C` [compound 24], the IC50 was no less than 100 µM.

For `Cc1ccc(C)c(NC(=O)NCc2ccc(Oc3ccncc3)cc2)c1` [compound 25], the half-inhibitory concentration (IC50) worked out at 13 µM.

Take `O=C(NCc1ccc(Oc2ccncc2)cc1)Nc1ccccc1C(F)(F)F` [compound 26]: the IC50 was 20 µM.

In the case of `Cc1ccc(NC(=O)NCc2ccc(Oc3ccncc3)cc2)cc1Cl` [compound 27], the 50% inhibitory concentration (IC50) was determined as 0.74 µM.

Turning to `CCc1ccccc1NC(=O)NCc1ccc(Oc2ccncc2)cc1` [compound 28], the concentration for half-maximal inhibition (IC50) is no less than 100 µM.

In the case of `Cc1ccccc1NC(=O)NCc1ccc(Oc2ccncc2)cc1` [compound 29], the IC50 is no less than 100 µM.

As to `Cc1ccc(NC(=O)NCc2ccc(Oc3ccncc3)cc2)c(C)c1` [compound 30], the concentration for half-maximal inhibition (IC50) amounted to 28 µM.

Turning to `COc1ccc(Cl)cc1NC(=O)NCc1ccc(Oc2ccncc2)cc1` [compound 32], the 50% inhibitory concentration (IC50) was 0.087 µM.

Take `O=C(NCc1ccc(Oc2ccncc2)cc1)Nc1ccccc1Cl` [compound 33]: the IC50 is no less than 100 µM.

For `CSc1cccc(NC(=O)NCc2ccc(Oc3ccncc3)cc2)c1` [compound 34], the IC50 was 5.5 µM.

Turning to `O=C(NCc1ccc(Oc2ccncc2)cc1)Nc1ccc(Br)cc1Cl` [compound 35, 1-(4-Bromo-2-chloro-phenyl)-3-[4-(pyridin-4-yloxy)-benzyl]-urea], the IC50 turned out to be 9.5 µM.
